The structures appear in SMILES notation.

The target in the assay is H1047R PIK3CA enzyme (Homo sapiens, UniProt P42336, H1047R). Description: ADP-Glo Biochemical PIK3CA Kinase Assay. (ADP-Glo first removes unused ATP, then detects ADP through luciferase.)
Chain of H1047R PIK3CA enzyme (P42336 whole entry H1047R): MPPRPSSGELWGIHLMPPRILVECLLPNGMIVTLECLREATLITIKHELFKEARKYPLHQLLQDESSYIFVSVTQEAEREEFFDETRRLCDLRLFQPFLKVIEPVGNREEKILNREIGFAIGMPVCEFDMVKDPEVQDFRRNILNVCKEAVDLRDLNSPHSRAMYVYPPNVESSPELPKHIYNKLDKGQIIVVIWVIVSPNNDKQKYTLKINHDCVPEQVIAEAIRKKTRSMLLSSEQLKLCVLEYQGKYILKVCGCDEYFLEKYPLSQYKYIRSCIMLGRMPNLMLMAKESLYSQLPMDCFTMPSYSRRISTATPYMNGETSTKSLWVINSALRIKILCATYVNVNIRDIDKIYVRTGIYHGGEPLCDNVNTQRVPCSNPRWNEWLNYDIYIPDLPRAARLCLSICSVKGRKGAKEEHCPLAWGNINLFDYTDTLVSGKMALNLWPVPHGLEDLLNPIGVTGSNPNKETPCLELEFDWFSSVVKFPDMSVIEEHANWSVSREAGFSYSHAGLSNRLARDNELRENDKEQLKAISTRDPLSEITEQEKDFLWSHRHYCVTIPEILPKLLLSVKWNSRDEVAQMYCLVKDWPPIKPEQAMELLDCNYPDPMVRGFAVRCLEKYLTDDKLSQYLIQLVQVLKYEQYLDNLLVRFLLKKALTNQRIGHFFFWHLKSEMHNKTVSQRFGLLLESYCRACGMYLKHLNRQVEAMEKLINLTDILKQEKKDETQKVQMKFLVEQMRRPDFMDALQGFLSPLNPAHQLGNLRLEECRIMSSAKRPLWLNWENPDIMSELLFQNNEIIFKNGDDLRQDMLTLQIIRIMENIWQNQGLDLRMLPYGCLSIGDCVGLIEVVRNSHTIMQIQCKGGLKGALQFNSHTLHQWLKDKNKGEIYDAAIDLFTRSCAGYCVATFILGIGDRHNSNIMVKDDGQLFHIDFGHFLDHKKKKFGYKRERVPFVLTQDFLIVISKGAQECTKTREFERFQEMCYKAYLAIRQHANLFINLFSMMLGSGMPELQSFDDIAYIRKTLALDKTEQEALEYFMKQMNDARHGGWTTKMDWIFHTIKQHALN
Chain of H1047R PIK3CA enzyme (P27986 whole entry partner): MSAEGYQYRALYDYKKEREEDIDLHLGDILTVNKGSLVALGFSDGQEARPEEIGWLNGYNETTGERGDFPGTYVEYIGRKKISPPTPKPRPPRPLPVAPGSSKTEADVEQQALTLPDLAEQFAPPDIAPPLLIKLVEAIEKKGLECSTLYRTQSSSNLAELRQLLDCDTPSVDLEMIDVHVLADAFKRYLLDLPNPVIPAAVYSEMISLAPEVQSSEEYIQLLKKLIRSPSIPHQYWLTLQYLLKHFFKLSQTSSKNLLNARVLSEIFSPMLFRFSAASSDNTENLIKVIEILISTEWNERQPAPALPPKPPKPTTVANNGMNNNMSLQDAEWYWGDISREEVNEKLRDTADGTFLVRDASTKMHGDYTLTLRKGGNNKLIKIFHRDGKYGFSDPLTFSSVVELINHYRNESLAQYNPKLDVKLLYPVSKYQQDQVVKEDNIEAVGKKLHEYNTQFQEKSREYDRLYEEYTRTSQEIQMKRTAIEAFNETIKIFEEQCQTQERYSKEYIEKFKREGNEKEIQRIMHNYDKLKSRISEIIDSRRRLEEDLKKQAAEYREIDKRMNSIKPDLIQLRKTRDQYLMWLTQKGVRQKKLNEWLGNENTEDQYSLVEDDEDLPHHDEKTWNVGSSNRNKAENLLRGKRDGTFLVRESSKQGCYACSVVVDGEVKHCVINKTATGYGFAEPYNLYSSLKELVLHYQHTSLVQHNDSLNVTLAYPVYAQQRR
By IC50 is commonly meant the concentration needed to halve the response being measured. Low readings indicate inhibition by little substance, high ones a need for much substance. Take `O=C1NC(c2cc(F)ccc2Cl)c2c(NC(=O)N3CCNC(C(F)(F)F)C3)cccc21` (stereo not drawn) [Compound I-2222]: the IC50 was 10 to 100 µM.

`CC(C)(O)c1cnc2ccc(-c3cc(NC(=O)c4cc(F)cc(C(F)(F)F)c4)c4c(c3)C(=O)NC4c3cc(F)ccc3Cl)cc2c1` (stereo not drawn) [Compound I-1540] gave a concentration for half-maximal inhibition (IC50) of at most 0.1 µM.

The compound `N#Cc1cc(NC(=O)N2C[C@](O)(C(F)(F)F)c3ccccc32)c2c(c1)C(=O)N[C@H]2c1cc(F)ccc1Cl` (single isomer, unassigned) [Compound I-2565] returned an IC50 of 1 to 10 µM.

The compound `O=C1N[C@H](c2cc(F)ccc2Cl)c2c(NC(=O)N3C[C@](O)(C(F)(F)F)c4ccccc43)cc(Cl)cc21` (single isomer, unassigned) [Compound I-2508] came in with an IC50 of 1 to 10 µM.

Consider `N#Cc1cc2nccn2cc1-c1cc(NC(=O)c2cc(F)cc(C(F)(F)F)c2)c2c(c1)C(=O)N[C@@H]2c1cc(F)ccc1Cl` [Compound I-1585], for which the IC50 is 0.5 to 1 µM.

`O=C1N[C@H](c2cc(F)ccc2Cl)c2c(NC(=O)N3C[C@](O)(C(F)(F)F)c4cc(F)ccc43)cc(-n3ccnn3)cc21` (single isomer, unassigned) [Compound I-2548] showed an IC50 of 1 to 10 µM.

The compound `NCc1cc(-c2ccc3ncnn3c2)cc2c1C(c1cc(F)ccc1Cl)NC2=O` (stereo not drawn) [Compound I-1950] displayed an IC50 of 10 to 100 µM.

Compound `Cc1ccccc1C1NC(=O)c2cc(CC(C)C)cc(NC(=O)c3cc(F)cc(C(F)(F)F)c3)c21` (stereo not drawn) [Compound I-268] gave an IC50 of at most 0.1 µM.

In turn, `N#CCCc1cc(NC(=O)N2C[C@@H](O)c3cc(F)ccc32)c2c(c1)C(=O)N[C@@H]2c1cc(F)ccc1Cl` (single isomer, unassigned) [Compound I-2348] displayed an IC50 of 1 to 10 µM.

The compound `CO[C@@H]1CC[C@H]1Nc1cc(NC(=O)c2cc(F)cc(C(F)(F)F)c2)c2c(c1)C(=O)NC2c1cc(F)ccc1Cl` (mixture of isomers) [Compound I-780] gave an IC50 of at most 0.1 µM.

`O=C(Nc1cc(-c2ccc3ncnn3c2)c(Cl)c2c1C(c1cc(F)ccc1Cl)NC2=O)c1cc(F)cc(C(F)(F)F)c1` (stereo not drawn) [Compound I-1667] displayed an IC50 of at most 0.1 µM.

`CC1(c2ccccc2)NC(=O)c2cccc(NC(=O)c3csc4ccccc34)c21` (stereo not drawn) [Compound I-130] gave an IC50 of 10 to 100 µM.

Regarding `O=C(Nc1cc(N2CC(F)(F)C2)cc2c1C(c1cc(F)ccc1Cl)NC2=O)c1cc(F)cc(C(F)(F)F)c1` (stereo not drawn) [Compound I-370], the IC50 was at most 0.1 µM.

For the compound `O=C1N[C@H](c2cc(F)ccc2Cl)c2c(NC(=O)N3C[C@H](O)c4cccc(F)c43)cccc21` (single isomer, unassigned) [Compound I-2207], the IC50 fell in the range of 1 to 10 µM.

With `Cc1ccccc1C1NC(=O)c2c(Br)ccc(NC(=O)c3nsc4ccccc34)c21` (stereo not drawn) [Compound I-203], the IC50 was at most 0.1 µM.

As for `O=C1NC(CO)(c2cccc(F)c2)c2c1cccc2-c1nc2cc(C(F)(F)F)cc(F)c2[nH]1` (stereo not drawn) [Compound I-2296], the IC50 was 1 to 10 µM.

With `COc1ccc2scc(C(=O)Nc3cccc4c3C(c3ccccc3C)NC4=O)c2c1` (stereo not drawn) [Compound I-42], the IC50 is 1 to 10 µM.

`Cc1ncc(Nc2cc(NC(=O)c3cc(F)cc(C(F)(F)F)c3)c3c(c2)C(=O)NC3c2cc(F)ccc2Cl)cn1` (stereo not drawn) [Compound I-1245] gave an IC50 of at most 0.1 µM.

As to `O=C(Nc1cccc2c1[C@@H](c1cc(F)ccc1C(F)F)NC2=O)c1cc(F)cc(C(F)(F)F)c1` [Compound I-169], the IC50 was 1 to 10 µM.

Regarding `CNc1cc(NC(=O)N2C[C@](O)(C(F)(F)F)c3cc(F)ccc32)c2c(c1)C(=O)N[C@H]2c1cc(F)ccc1Cl` (single isomer, unassigned) [Compound I-2643], the IC50 was in the range of 1 to 10 µM.

Turning to `[2H]c1nc2cnc(-c3cc(NC(=O)c4cc(F)cc(C(F)(F)F)c4)c4c(c3)C(=O)N[C@@H]4c3cc(F)ccc3Cl)cn2n1` [Compound I-2068], the IC50 is 1 to 10 µM.

The compound `O=C1NC(c2c(F)cccc2Cl)c2c(NC(=O)c3nsc4ccccc34)cccc21` (stereo not drawn) [Compound I-99] returned an IC50 of 0.5 to 1 µM.

`N[C@@H]1CCC[C@H](C(=O)Nc2cc(-c3ccc4ncnn4c3)cc3c2C(c2cc(F)ccc2Cl)NC3=O)C1` (mixture of isomers) [Compound I-1844] came in with an IC50 of 10 to 100 µM.

The compound `CCC1CCCN1C(=O)Nc1cccc2c1C(c1cc(F)ccc1Cl)NC2=O` (mixture of isomers) [Compound I-2395] gave an IC50 of 1 to 10 µM.

`O=C1N[C@@H](c2cc(F)ccc2Cl)c2c(NC(=O)N3C[C@H](O)c4c3ccc(F)c4F)cccc21` (single isomer, unassigned) [Compound I-2312] registered an IC50 of 1 to 10 µM.

In turn, `Cc1ccccc1C1NC(=O)c2c(C(=O)O)ccc(NC(=O)c3nsc4ccccc34)c21` (stereo not drawn) [Compound I-278] showed an IC50 of 0.5 to 1 µM.

`O=C1NC(c2cc(F)ccc2Cl)c2c(NC(=O)N3CCOCC(F)(F)C3)cc(Br)cc21` (stereo not drawn) [Compound I-698]: the IC50 was 10 to 100 µM.

Regarding `O=C1NC(c2cc(F)ccc2Cl)c2c1cccc2N1Cc2ccccc2CC1=O` (stereo not drawn) [Compound I-1746], the IC50 is 10 to 100 µM.

As for `CC(c1cc(NC(=O)c2cc(F)cc(C(F)(F)F)c2)c2c(c1)C(=O)NC2c1cc(F)ccc1Cl)S(C)(=O)=O` (stereo not drawn) [Compound I-1292], the IC50 is at most 0.1 µM.

For the compound `Nc1nn(C(=O)Nc2cccc3c2C(c2cc(F)ccc2Cl)NC3=O)c2ccc(F)cc12` (stereo not drawn) [Compound I-2431], the IC50 was 0.5 to 1 µM.

`Cc1ccccc1C1NC(=O)c2cccc(NC(=O)c3cccc(C(F)(F)F)c3F)c21` (stereo not drawn) [Compound I-12] returned an IC50 of 10 to 100 µM.

`O=C1NC(c2cc(F)ccc2Cl)c2c(Nc3ccn(CCO)n3)cc(-c3ccc4ncnn4c3)cc21` (stereo not drawn) [Compound I-1994] returned an IC50 of 10 to 100 µM.

For `O=C(CO)Nc1cc(NC(=O)c2cc(F)cc(C(F)(F)F)c2)c2c(c1)C(=O)N[C@@H]2c1cc(F)ccc1Cl` [Compound I-512], the IC50 lay within 0.1 to 0.5 µM.

For the compound `O=C(Nc1cc(-c2ccc3ncnn3c2)cc2c1[C@@H](c1cc(F)ccc1Cl)NC2=O)c1ccc(F)c(OC(F)(F)F)c1` (stereo in doubt) [Compound I-1108], the IC50 was in the range of 1 to 10 µM.

Compound `O=C1NC(c2cc(F)ccc2Cl)c2c(NC(=O)C3CCC(C(F)(F)F)CC3)cc(Br)cc21` (stereo not drawn) [Compound I-1324] came in with an IC50 of 1 to 10 µM.

In turn, `O=C(Nc1cccc2c1C(C1CCCC(O)C1)NC2=O)c1cc(F)cc(C(F)(F)F)c1` (mixture of isomers) [Compound I-2224] returned an IC50 of 10 to 100 µM.

In the case of `Cc1ccccc1C1NC(=O)c2c(C(N)=O)ncc(NC(=O)c3cc(F)cc(C(F)(F)F)c3)c21` (stereo not drawn) [Compound I-265], the IC50 is 0.1 to 0.5 µM.

Consider `O=C(Nc1cc(-c2ccc3ncnn3c2)cc2c1[C@@H](c1cc(F)ccc1Cl)NC2=O)c1cc(F)cc(OC(F)F)c1` (stereo in doubt) [Compound I-1170], for which the IC50 was in the range of 10 to 100 µM.

Consider `CC(=O)N1CCC(C2NC(=O)c3cccc(NC(=O)c4cc(F)cc(C(F)(F)F)c4)c32)CC1` (stereo not drawn) [Compound I-1818], for which the IC50 lay within 10 to 100 µM.

`C[S@](=O)(Cc1cc(NC(=O)c2cc(F)cc(C(F)(F)F)c2)c2c(c1)C(=O)N[C@H]2c1cc(F)ccc1Cl)=NC#N` (single isomer, unassigned) [Compound I-1564] yielded an IC50 of at most 0.1 µM.

Compound `COCc1cc(NC(=O)c2cc(F)cc(C(F)(F)F)c2)c2c(c1)C(=O)N[C@@H]2c1cc(F)ccc1Cl` [Compound I-690] yielded an IC50 of 0.1 to 0.5 µM.

With `O=C(Nc1cc(-c2ccc3nnc(Cl)n3c2)cc2c1C(c1cc(F)ccc1Cl)NC2=O)c1cc(F)cc(C(F)(F)F)c1` (stereo not drawn) [Compound I-1574], the IC50 is at most 0.1 µM.

`CC12CC3CC(F)(C1)CC(C(=O)Nc1cc(Br)cc4c1C(c1cc(F)ccc1Cl)NC4=O)(C3)C2` (stereo not drawn) [Compound I-1635]: the IC50 was 0.1 to 0.5 µM.

Compound `O=C(Nc1cc(-c2cc3ncnn3cc2F)cc2c1C(c1cc(F)ccc1Cl)NC2=O)c1cc(F)cc(C(F)(F)F)c1` (stereo not drawn) [Compound I-1828] showed an IC50 of at most 0.1 µM.

On to `[2H][C@]1(c2cc(F)ccc2Cl)NC(=O)c2cccc(NC(=O)N3C[C@@](O)(C(F)(F)F)c4cc(F)ccc43)c21` (single isomer, unassigned) [Compound I-2683], for which the IC50 is 1 to 10 µM.

With `COCc1cc2c(c(N(C)C(=O)c3nsc4ccccc34)c1)C(c1ccccc1C)NC2=O` (stereo not drawn) [Compound I-134, N-(6-(Methoxymethyl)-1-oxo-3-(o-tolyl)isoindolin-4-yl)-N-methylbenzo[d]isothiazole-3-carboxamide], the IC50 was 10 to 100 µM.

`Cn1cc(-c2cc(NC(=O)c3cc(F)cc(C(F)(F)F)c3)c3c(c2)C(=O)N[C@@H]3c2cc(F)ccc2Cl)c(C#N)n1` [Compound I-1737] displayed an IC50 of 10 to 100 µM.

Regarding `COc1cc2ncnn2cc1-c1cc(NC(=O)c2cc(F)cc(C(F)(F)F)c2)c2c(c1)C(=O)NC2c1cc(F)ccc1Cl` (stereo not drawn) [Compound I-1700], the IC50 was at most 0.1 µM.

In turn, `Cn1cc(-c2cc(NC(=O)c3cc(F)cc(C(F)(F)F)c3)c3c(n2)C(=O)N[C@@H]3c2cc(F)ccc2Cl)ccc1=O` [Compound I-587] showed an IC50 of 1 to 10 µM.

Compound `O=C(Nc1cccc2c1C(C1CCCCC1O)NC2=O)c1cc(F)cc(C(F)(F)F)c1` (stereo not drawn) [Compound I-2060] had an IC50 of 10 to 100 µM.

`O=C(Nc1cc(NC(=O)C2CCO2)cc2c1C(c1cc(F)ccc1Cl)NC2=O)c1cc(F)cc(C(F)(F)F)c1` (stereo not drawn) [Compound I-361] had an IC50 of at most 0.1 µM.

On to `O=C(Nc1cc(C#Cc2ccn[nH]2)cc2c1C(c1cc(F)ccc1Cl)NC2=O)c1cc(F)cc(C(F)(F)F)c1` (stereo not drawn) [Compound I-1244], for which the IC50 is at most 0.1 µM.

Consider `O=C1CCC[C@@H]([C@@H]2NC(=O)c3cccc(NC(=O)c4cc(F)cc(C(F)(F)F)c4)c32)C1` (single isomer, unassigned) [Compound I-2255], for which the IC50 lay within 10 to 100 µM.

Compound `Cc1ccccc1C1NC(=O)c2cccc(NC(=O)C34CCC(C3)c3ccccc34)c21` (stereo not drawn) [Compound I-226, N-(1-Oxo-3-(o-tolyl)isoindolin-4-yl)-1,2,3,4-tetrahydro-1,4-methanonaphthalene-1-carboxamide] showed an IC50 of 1 to 10 µM.

Regarding `O=C1NC(c2cc(F)ccc2Cl)c2c(NC(=O)C3CCC(O)CC3)cc(-c3ccc4ncnn4c3)cc21` (stereo not drawn) [Compound I-1690], the IC50 lay in the range of 10 to 100 µM.

`CC(C)(C(=O)Nc1cc(Br)cc2c1C(c1cc(F)ccc1Cl)NC2=O)C(F)(F)F` (stereo not drawn) [Compound I-1620] showed an IC50 of 10 to 100 µM.

As for `CP(C)(=O)c1cc(NC(=O)c2cc(F)cc(C(F)(F)F)c2)c2c(c1)C(=O)NC2c1cc(F)ccc1Cl` (stereo not drawn) [Compound I-395], the IC50 is at most 0.1 µM.

The values above are taken from US12581252B2, “Substituted pyrrolo[3,4-b]pyridines as PI3K-α inhibitors” (Relay Therapeutics, Inc., priority 2020, dated 2026).
